Experimental data from US8546409B2, “Methods of treatment for solid tumors” (priority 2009, dated 2013).
“And” between values parts separate entries of the source, which are not always exact repeats. Equal entries are not always repeated. “Also recorded” adds a separate entry of the source. Where two headings read alike, the source gives them in different places.

Assays:
p110β = target: T1, p110β (Homo sapiens, UniProt P42338); assay: Chick embryo fibroblast (CEF) transformation assay, p110β; format: cell-based; settings: read-out: EC-50 for inhibition of functional activity of p110β
T1 construct: expressed in transfected cells; host or cells: chick embryo fibroblasts (CEF), viral transduction
T1 sequence (P42338 whole entry): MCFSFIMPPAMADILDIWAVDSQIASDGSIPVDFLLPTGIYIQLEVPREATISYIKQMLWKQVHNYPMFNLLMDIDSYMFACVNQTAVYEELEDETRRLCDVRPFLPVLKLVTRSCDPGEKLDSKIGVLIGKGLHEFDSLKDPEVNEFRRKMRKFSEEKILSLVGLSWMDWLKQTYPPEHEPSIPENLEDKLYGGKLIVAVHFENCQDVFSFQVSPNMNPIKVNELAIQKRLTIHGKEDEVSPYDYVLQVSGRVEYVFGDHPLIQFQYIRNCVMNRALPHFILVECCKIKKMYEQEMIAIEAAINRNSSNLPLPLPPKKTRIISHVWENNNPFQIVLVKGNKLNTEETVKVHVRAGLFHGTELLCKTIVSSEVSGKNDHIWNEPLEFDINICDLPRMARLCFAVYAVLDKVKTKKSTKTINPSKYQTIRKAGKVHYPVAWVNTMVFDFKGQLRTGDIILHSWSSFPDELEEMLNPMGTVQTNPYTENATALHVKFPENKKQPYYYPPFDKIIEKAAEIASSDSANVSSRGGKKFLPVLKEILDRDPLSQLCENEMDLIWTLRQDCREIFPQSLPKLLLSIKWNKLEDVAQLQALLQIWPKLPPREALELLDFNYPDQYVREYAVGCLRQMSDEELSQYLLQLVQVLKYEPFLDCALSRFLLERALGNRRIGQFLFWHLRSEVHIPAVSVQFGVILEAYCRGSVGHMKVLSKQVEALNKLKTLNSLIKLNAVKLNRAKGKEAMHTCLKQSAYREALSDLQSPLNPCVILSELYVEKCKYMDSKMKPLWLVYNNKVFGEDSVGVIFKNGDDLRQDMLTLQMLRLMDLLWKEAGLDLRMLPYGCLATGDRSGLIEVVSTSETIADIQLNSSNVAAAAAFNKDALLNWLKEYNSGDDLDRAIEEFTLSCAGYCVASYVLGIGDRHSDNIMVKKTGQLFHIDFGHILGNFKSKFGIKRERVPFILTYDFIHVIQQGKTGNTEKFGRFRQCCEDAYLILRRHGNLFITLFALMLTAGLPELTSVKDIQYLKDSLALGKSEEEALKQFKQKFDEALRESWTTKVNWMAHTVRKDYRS
Excerpt: Moreover, compound I has comparatively low activity on p110α in a cell-transformation system designed to measure functional activity of these kinases, but is a potent inhibitor of both p110β and p110δ in that assay. See Example 1. This chick embryo fibroblast (CEF) transformation system has been reported as a useful way to assess the functional activity of the PI3K signaling pathway. Denley, et al., “Oncogenic signaling of class I PI3K isoforms,” Oncogene, vol. 27(18), 2561-74 (2008). Transformation of CEF cells in the assay depends upon functional kinase activity. Kang, et al., Proc. Nat'l Acad. Sci. USA, vol. 103(5), 1289-94 (2006). The readout of this assay is based on the frequency of transformation of CEF cells exposed to viral vectors carrying a specific p110 isoform of interest.
Chick embryo fibroblasts (CEF) are transduced with viral stocks with versions of the human genes for the individual PI3K isoforms p110α, p110β, p110δ and p110γ. These transduced CEF lines are then plated in a growth medium where oncogenically transformed cells form foci that can then be stained and counted. […] Denley A, Kang S, Karst U and Vogt PK, “Oncogenic signaling of class 1 PI3K isoforms.” Oncogene (2008) 27: 2561-2574. FIG. 3 illustrates the readout of this assay.

p110α = target: T2, p110α (Mus musculus, UniProt P42337); assay: Cell-based p110α assay: PDGF-stimulated Akt phosphorylation in SW3T3 cells
T2 construct: endogenous in cells; host or cells: SW3T3 cells
T2 sequence (P42337 whole entry): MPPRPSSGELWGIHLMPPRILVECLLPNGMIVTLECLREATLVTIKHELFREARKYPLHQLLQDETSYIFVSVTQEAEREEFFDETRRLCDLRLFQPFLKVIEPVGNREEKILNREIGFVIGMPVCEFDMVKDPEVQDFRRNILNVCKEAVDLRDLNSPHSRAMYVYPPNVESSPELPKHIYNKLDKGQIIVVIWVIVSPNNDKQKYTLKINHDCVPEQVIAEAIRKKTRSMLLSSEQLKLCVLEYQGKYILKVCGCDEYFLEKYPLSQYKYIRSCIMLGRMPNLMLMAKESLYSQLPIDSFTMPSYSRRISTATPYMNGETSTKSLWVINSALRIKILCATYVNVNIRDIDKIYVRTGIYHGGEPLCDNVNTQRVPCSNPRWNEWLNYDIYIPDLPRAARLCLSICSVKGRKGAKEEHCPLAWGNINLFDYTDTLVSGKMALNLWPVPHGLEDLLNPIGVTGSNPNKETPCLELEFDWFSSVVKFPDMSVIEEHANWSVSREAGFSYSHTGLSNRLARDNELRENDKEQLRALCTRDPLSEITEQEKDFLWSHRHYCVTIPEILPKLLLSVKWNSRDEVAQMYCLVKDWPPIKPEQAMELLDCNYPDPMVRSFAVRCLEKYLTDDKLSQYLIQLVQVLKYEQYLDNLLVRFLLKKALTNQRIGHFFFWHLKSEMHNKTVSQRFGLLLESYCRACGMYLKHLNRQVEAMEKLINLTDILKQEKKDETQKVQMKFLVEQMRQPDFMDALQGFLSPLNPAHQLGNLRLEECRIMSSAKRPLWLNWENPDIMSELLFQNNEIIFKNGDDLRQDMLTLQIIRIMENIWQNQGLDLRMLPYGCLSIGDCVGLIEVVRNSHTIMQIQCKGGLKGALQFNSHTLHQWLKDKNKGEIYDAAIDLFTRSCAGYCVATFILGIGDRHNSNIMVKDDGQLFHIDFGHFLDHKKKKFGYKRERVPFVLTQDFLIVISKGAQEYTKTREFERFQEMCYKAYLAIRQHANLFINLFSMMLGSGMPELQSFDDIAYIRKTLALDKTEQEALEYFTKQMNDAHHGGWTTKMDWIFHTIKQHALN
T2 sequence (P26450 whole entry partner): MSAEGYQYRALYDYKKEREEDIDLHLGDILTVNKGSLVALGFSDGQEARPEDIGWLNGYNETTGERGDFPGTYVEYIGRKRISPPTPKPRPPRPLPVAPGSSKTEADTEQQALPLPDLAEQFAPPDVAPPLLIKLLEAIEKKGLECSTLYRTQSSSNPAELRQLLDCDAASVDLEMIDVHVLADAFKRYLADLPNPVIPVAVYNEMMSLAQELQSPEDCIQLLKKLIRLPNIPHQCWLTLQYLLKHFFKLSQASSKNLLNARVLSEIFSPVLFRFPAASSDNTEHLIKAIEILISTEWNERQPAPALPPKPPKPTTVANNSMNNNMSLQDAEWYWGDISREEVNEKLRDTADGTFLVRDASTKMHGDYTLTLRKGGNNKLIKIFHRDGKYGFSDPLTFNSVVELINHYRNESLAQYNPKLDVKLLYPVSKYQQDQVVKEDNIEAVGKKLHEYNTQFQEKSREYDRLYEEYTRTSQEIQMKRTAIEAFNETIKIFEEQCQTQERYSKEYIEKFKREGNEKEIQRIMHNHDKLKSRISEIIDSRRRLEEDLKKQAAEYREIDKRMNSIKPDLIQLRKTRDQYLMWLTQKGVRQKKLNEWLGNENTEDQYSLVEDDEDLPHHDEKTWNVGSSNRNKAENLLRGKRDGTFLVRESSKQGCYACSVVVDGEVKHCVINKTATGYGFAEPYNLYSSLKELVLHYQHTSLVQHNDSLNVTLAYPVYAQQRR
Experimental: (§1) The p110α assay used SW3T3 cells stimulated by PDGF, and p110 kinase activity was measured by Akt phosphorylation. The p110β activity was measured by lysophosphatidic acid stimulation of Akt phosphorylation in mouse embryonic fibroblasts. The activity of p110δ was measured by anti-FcεR1 antibody cross linking stimulation of CD63 movement to the surface of basophils. Finally, the activity of p110γ was measured by fMLP stimulation of CD63 antigen movement to the cell surface of basophils.

p110γ = target: T3, p110γ (Homo sapiens, UniProt P48736); assay: Cell-based p110γ assay: fMLP stimulated CD63 movement to surface of basophils
T3 construct: endogenous in cells; host or cells: basophils
T3 sequence (P48736 whole entry, species assumed): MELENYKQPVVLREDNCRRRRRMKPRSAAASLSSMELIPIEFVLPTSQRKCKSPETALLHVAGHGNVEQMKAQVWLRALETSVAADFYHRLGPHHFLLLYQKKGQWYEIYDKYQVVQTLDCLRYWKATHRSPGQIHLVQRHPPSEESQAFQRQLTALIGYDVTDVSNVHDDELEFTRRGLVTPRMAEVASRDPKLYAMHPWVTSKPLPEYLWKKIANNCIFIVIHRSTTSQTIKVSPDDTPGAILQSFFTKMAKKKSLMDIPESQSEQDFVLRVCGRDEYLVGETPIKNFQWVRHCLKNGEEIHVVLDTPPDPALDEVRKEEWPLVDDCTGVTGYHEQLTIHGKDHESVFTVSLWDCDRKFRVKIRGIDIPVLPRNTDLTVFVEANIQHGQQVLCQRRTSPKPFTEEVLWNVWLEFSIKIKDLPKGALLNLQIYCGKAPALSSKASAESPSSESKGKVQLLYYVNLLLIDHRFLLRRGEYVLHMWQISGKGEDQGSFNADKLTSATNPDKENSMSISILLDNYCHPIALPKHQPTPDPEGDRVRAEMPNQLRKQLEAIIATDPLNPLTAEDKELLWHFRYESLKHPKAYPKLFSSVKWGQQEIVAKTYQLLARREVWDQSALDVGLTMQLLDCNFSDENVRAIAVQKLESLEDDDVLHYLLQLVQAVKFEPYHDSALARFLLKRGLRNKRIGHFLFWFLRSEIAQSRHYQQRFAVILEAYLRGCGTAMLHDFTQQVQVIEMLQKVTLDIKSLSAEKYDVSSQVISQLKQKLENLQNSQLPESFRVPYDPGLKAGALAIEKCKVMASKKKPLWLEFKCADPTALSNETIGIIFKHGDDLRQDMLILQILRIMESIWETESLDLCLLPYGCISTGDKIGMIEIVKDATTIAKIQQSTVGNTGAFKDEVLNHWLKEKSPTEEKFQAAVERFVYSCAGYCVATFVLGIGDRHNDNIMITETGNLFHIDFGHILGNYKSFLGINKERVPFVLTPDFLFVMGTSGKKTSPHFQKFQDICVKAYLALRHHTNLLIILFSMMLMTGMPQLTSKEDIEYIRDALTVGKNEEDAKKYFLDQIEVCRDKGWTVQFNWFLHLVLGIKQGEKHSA
Experimental: as §1

T47D = assay: Tumor cell culture growth, optical density at 459 nm (FIG. 7), T47D; format: cell-based; settings: 5-10 micromolar
A498 xenografts = assay: Renal cancer xenografts in nu/nu mice (FIG. 9); format: in vivo; settings: 30 mg/kg BID, 20 days, female nu/nu mice
Experimental: Female nu/nu mice bearing A498 xenografts (human renal cancer cells) were maintained until tumor volume measured about 100 mm^3. At that point, treatment began with compound I at a rate of 30 mg/kg administered twice per day.

NCI-H226 = assay: NCI panel growth inhibition, NCI-H226; format: cell-based; settings: Homo sapiens, Non-Small Cell Lung Cancer
Excerpt: (§2) Compound I has also been tested in a battery of tumor cell assays known as the NCI panel.

NCI-H322M = assay: NCI panel growth inhibition, NCI-H322M; format: cell-based; settings: Homo sapiens, Non-Small Cell Lung Cancer
Excerpt: as §2

HCT-15 = assay: NCI panel growth inhibition, HCT-15; format: cell-based; settings: Homo sapiens, Colon Cancer
Excerpt: as §2

HT29 = assay: NCI panel growth inhibition, HT29; format: cell-based; settings: Homo sapiens, HT-29, Colon Cancer
Excerpt: as §2

KM12 = assay: NCI panel growth inhibition, KM12; format: cell-based; settings: Homo sapiens, Colon Cancer
Excerpt: as §2

U251 = assay: NCI panel growth inhibition, U251; format: cell-based; settings: Homo sapiens, U-251, CNS Cancer
Excerpt: as §2

MALME-3M = assay: NCI panel growth inhibition, MALME-3M; format: cell-based; settings: Homo sapiens, Melanoma
Excerpt: as §2

SK-MEL-2 = assay: NCI panel growth inhibition, SK-MEL-2; format: cell-based; settings: Homo sapiens, Melanoma
Excerpt: as §2

UACC-62 = assay: NCI panel growth inhibition, UACC-62; format: cell-based; settings: Homo sapiens, Melanoma
Excerpt: as §2

IGROV1 = assay: NCI panel growth inhibition, IGROV1; format: cell-based; settings: Homo sapiens, IGROV-1, Ovarian
Excerpt: as §2

OVCAR-8 = assay: NCI panel growth inhibition, OVCAR-8; format: cell-based; settings: Homo sapiens, Ovarian
Excerpt: as §2

RXF 393 = assay: NCI panel growth inhibition, RXF 393; format: cell-based; settings: Homo sapiens, Renal
Excerpt: as §2

SN12C = assay: NCI panel growth inhibition, SN12C; format: cell-based; settings: Homo sapiens, Renal
Excerpt: as §2

UO-31 = assay: NCI panel growth inhibition, UO-31; format: cell-based; settings: Homo sapiens, Renal
Excerpt: as §2

PC-3 = assay: NCI panel growth inhibition, PC-3; format: cell-based; settings: Homo sapiens, Prostate
Excerpt: as §2

DU-145 = assay: NCI panel growth inhibition, DU-145; format: cell-based; settings: Homo sapiens, Prostate
Excerpt: as §2

ADR-RES = assay: NCI panel growth inhibition, ADR-RES; format: cell-based; settings: Breast Cancer
Excerpt: as §2

MDA-MB-231 = assay: NCI panel growth inhibition, MDA-MB-231; format: cell-based; settings: Homo sapiens, Breast Cancer
Excerpt: as §2

HS 578T = assay: NCI panel growth inhibition, HS 578T; format: cell-based; settings: Homo sapiens, Breast Cancer
Excerpt: as §2

BT-549 = assay: NCI panel growth inhibition, BT-549; format: cell-based; settings: Homo sapiens, Breast Cancer
Excerpt: as §2

C[C@H](Nc1ncnc2[nH]cnc12)c1nc2ccc(F)cc2c(=O)n1-c1ccccc1 [Compound I]
EC50 (p110β): 0.15 µM and ~0.15 µM
EC50 (p110α): > 20 µM
EC50 (p110γ; FB, read-out: Cell-based assay EC50 p110γ, FB): 3 µM
EC50 (p110γ; WB, read-out: Cell-based assay EC50 p110γ, WB): 5.4 µM
Inhibition of tumor cell culture growth (T47D): strong inhibition of growth
Tumor volume of A498 xenograft (A498 xenografts): significantly inhibited growth; also recorded: tumor volume approximately doubled
Tumor volume of A498 xenograft (A498 xenografts; listed as compound I): significant reduction in tumor growth
GI50 (NCI-H226): 100 µM
GI50 (NCI-H322M): 10.5 µM
GI50 (HCT-15): 30.3 µM
GI50 (HT29): 16.5 µM
GI50 (KM12): 2 µM
GI50 (U251): 59.6 µM
GI50 (MALME-3M): 4.58 µM
GI50 (SK-MEL-2): 100 µM
GI50 (UACC-62): 1.43 µM
GI50 (IGROV1): 2.7 µM
GI50 (OVCAR-8): 44.6 µM
GI50 (RXF 393): 1.14 µM
GI50 (SN12C): 22.5 µM
GI50 (UO-31): 2.01 µM
GI50 (PC-3): 0.647 µM
GI50 (DU-145): 1.35 µM
GI50 (ADR-RES): 58.6 µM
GI50 (MDA-MB-231): 100 µM
GI50 (HS 578T): 2.24 µM
GI50 (BT-549): 0.538 µM
